Patent US8071321B2, “Methods for up-regulating antigen expression in tumors” (CytoCure LLC, priority 2002, dated 2011)

Key:
[1] = tested on: gp100 antigen in MU-X melanoma cells; experiment: Flow cytometric analysis of gp100 (HMB) staining in MU-X low antigen-expressing cells; format: cell-based, human
Experimental: (§1) Determination of protein Antigen in Tumor Cells via Flow Cytometric Analysis: To evaluate expression of cytoplasmic Melan-A/MART-1 antigen in melanoma tumor cell lines, cells were first fixed for 10′ in 1% paraformaldehyde; the cells are pelleted and incubated for 5′ in 0.1% saponin prior to washing and addition of monoclonal antibody specific for Melan-A/MART-1, A-103 (Ramirez-Montagut, et al., supra) for 45′ at 22° C. Following two washes, the cells were stained for 30′ with FITC-conjugated goat-anti-mouse Ig antibody (DAKO, Carpenteria, Calif.) prior to fixation in 1% paraformaldehyde and analysis by flow cytometry (FACScan, Becton-Dickinson, Mt. View, Calif.). Histograms of fluorescence staining were generated for comparison of anti-Melan-A/MART-1 staining of various cell populations. Mean channel fluorescence was calculated using the “LYSIS” software provided by the manufacturer. Gp100 expression was determined similarly using the HMB45 monoclonal antibody.

[2] = tested on: Melan-A/MART-1 in MITF-M transfected A375 tumor cells; settings: 24 hours, U0126 10 μM (FIG. 6)
Experimental: (§2) Primers were designed from appropriate GenBank mRNA and genomic entries and designed to be intron-spanning to prevent simultaneous amplification of traces of genomic DNAs. Where this was not possible RNAs were treated with RNase-free DNase I and repurified.
(§3) To express MITF-M in cell lines expressing low levels of Melan-A/MART-1, MITF-M coding sequence was amplified from MITF-M-positive cells and cloned in an SV40-promoter expression vector (pSV21ink); translation of the MITF-M insert uses optimal Kozak initiation signals (Kozak (1999). Gene 234:187). Constructs were transfected into low-Melan-A/MART-1 expressor melanoma (MU-X and A375). In all studies controls comprised empty vector, transfection reagents in the absence of added DNA, and corresponding untransfected cells. Data shown in FIG. 6 for A375 and MU-X tumor cells transfected with MITF-M for 24 hours in the presence (10 μM) or absence of U0126 before PCR amplification of Melan-A/MART-1.

[3] = tested on: Melan-A/MART-1 in MITF-M transfected MU-X tumor cells; settings: 24 hours, U0126 10 μM (FIG. 6)
Experimental: as §2, §3

[4] = tested on: melanocyte-related genes in MU-89 cells; experiment: RT-PCR of melanoma gene expression in MU-89 cells; format: cell-based, human; settings: MU-89 cells (FIG. 5)
[5] = tested on: gp100 antigen in MU-89 melanoma cells; experiment: Flow cytometric analysis of gp100 (HMB45 staining) in MU-89 cells; format: cell-based, human; settings: HMB 45 staining, control MU-89 41.6
Experimental: as §1

With Nc1ncn([C@H]2C[C@H](O)[C@@H](CO)O2)c(=O)n1 [5 azadeoxycytidine] the “effect on interferon-beta induced gp100 expression” value ([1]; gp100 (HMB) staining (FIG. 4)) was “augmented”.

With Nc1ncn([C@@H]2O[C@H](CO)[C@@H](O)[C@H]2O)c(=O)n1 [5-AZA, 5-azacytidine] the “gp100 mean channel fluorescence” value ([1]; MU-X cells, 5-AZA 40uM, MU-X control 12.8) was 39.0.

With N#CC(=C(/N)Sc1ccccc1N)/C(C#N)=C(\N)Sc1ccccc1N [U0126] the Melan-A/MART-1 expression [2] was “augmented enhancement” and the Melan-A/MART-1 expression [3] was “augmented enhancement”.

B1: OSM: Recombinant human oncostatin M (rhOSM) from R&D Systems (protein, UniProt P13725 26-221, looked up)
Oncostatin-M: AAIGSCSKEYRVLLGQLQKQTDLMQDTSRLLDPYIRIQGLDVPKLREHCRERPGAFPSEETLRGLGRRGFLQTLNATLGCVLHRLADLEQRLPKAQDLERSGLNIEDLEKLQMARPNILGLRNNIYCMAQLLDNSDTAEPTKAGRGASQPPTPTPASDAFQRKLEGCRFLHGYHRFMHSVGRVFSKWGESPNRSRR
For B1, the MITF-A isoform expression [4] was “not detectably responsive”, the MITF-M expression [4] was “down-modulates” and the “expression of Melan-A/MART-1, tyrosinase, gp100, TRP-1 and TRP-2 genes” value [4] was “induces down-modulation”. For the same molecule, the “gp100 mean channel fluorescence” value [5] was 29.5.
